Experimental data published in ChEMBL document CHEMBL3351303, “Discovery of Imigliptin, a Novel Selective DPP-4 Inhibitor for the Treatment of Type 2 Diabetes” (ACS Med Chem Lett, 2014).

Legend:
Dipeptidyl peptidase 8 = Dipeptidyl peptidase 8 (Homo sapiens, UniProt Q6V1X1); assay: Inhibition of human recombinant DPP8 pre-incubated with compound for 15 mins before substrate addition by luminescence assay
Dipeptidyl peptidase 9 = Dipeptidyl peptidase 9 (Homo sapiens, UniProt Q86TI2); assay: Inhibition of human recombinant DPP9 pre-incubated with compound for 15 mins before substrate addition by luminescence assay
Chain of Dipeptidyl peptidase 9 (Q86TI2 whole entry): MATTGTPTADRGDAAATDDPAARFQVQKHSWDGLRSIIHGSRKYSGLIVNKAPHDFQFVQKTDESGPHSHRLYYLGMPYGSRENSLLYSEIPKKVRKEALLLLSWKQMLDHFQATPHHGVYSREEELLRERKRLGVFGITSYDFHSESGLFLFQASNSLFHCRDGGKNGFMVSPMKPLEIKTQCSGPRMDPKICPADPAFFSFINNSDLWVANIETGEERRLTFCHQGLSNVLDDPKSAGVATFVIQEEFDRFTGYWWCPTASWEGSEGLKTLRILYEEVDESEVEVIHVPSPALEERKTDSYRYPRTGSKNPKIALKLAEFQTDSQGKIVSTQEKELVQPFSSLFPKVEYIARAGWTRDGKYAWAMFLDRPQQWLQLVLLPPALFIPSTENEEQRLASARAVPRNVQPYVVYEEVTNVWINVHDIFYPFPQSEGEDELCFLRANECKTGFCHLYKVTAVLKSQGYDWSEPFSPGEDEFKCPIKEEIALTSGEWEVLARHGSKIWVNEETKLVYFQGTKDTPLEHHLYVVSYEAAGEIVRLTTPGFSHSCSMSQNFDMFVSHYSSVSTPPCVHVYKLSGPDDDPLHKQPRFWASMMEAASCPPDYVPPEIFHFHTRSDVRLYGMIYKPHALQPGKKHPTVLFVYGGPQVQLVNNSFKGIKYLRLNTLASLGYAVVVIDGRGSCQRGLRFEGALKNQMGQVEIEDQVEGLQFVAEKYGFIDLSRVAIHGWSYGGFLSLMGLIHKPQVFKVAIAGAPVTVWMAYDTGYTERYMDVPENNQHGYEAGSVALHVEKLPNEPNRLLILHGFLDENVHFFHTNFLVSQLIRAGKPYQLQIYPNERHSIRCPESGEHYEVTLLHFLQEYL

[1] = Volume of distribution at steady state in rat at 4 mg/kg, iv; format: ADME, organism-based; set-up: dose 4 mg/kg, route intravenous; conditions: in vivo, read-out: Vdss
[2] = Clearance in rat at 4 mg/kg, iv; format: ADME, organism-based; set-up: dose 4 mg/kg, route intravenous; conditions: in vivo
[3] = Half life in rat at 4 mg/kg, iv; format: ADME, organism-based; set-up: dose 4 mg/kg, route intravenous; conditions: in vivo
[4] = Cmax in rat at 8 mg/kg, po; format: ADME, organism-based; set-up: dose 8 mg/kg, route oral; conditions: in vivo
[5] = AUClast in rat at 8 mg/kg, po; format: ADME, organism-based; set-up: time 0 - last, dose 8 mg/kg, route oral; conditions: plasma
[6] = Half life in rat at 8 mg/kg, po; format: ADME, organism-based; set-up: dose 8 mg/kg, route oral; conditions: in vivo
[7] = Oral bioavailability in rat at 8 mg/kg; format: ADME, organism-based; conditions: in vivo

Chain of Dipeptidyl peptidase 8 (Q6V1X1 whole entry): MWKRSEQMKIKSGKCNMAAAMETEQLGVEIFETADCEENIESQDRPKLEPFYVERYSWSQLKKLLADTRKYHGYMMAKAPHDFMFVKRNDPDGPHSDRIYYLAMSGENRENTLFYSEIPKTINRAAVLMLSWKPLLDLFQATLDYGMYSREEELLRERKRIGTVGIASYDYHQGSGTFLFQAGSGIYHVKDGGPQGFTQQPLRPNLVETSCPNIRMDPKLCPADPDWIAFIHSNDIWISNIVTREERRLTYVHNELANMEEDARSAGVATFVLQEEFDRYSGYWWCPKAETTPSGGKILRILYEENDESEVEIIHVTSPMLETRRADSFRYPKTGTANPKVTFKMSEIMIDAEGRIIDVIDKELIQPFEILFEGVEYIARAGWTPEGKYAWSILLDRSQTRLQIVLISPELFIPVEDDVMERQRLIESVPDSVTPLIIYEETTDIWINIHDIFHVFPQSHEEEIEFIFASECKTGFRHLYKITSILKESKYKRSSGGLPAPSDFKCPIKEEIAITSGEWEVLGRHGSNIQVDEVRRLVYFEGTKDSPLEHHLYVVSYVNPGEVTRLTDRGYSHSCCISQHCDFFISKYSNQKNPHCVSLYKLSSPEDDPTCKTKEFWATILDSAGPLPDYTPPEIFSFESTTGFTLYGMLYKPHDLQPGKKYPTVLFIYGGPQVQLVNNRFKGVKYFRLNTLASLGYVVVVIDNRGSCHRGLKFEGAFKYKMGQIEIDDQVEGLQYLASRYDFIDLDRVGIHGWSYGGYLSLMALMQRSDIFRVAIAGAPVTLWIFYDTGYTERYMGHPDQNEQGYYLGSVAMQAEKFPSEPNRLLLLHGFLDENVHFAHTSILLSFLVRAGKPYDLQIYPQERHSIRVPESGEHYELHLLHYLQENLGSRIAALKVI

Cn1c(=O)n(Cc2ccccc2C#N)c2c(N3CCC[C@@H](N)C3)ncnc21
IC50 (Dipeptidyl peptidase 8): > 100 µM
IC50 (Dipeptidyl peptidase 9): > 100 µM
Vd [1]: 2.78 L/kg
clearance [2]: 61.2 mL/min/kg
half-life [3]: 0.8 h
Cmax [4]: 86 ng/mL
AUC(0-t) [5]: 249 ng·h/mL
half-life [6]: 1.5 h
bioavailability [7]: 12%
